From US11179348B2, “Combination comprising pterostilbene for the treatment of cancer” (FUNDACIÓN UNIVERSIDAD CATÓLICA DE VALENCIA SAN VICENTE …, priority 2015, dated 2021)
Marks after values point to notes of the source that are not given here.

Legend:
[1] = system: A2058 cells isolated from tumor-bearing mice; assay: Chemosensitization of cultured A2058 cells isolated from xenografts; assay type: cell-based, human; conditions: A2058; 72 h-cultured; PL 1 μM, Chemo 0.25 μM PAC.PBP; Pter = in vivo pretreatment
Experimental: FIG. 5. Chemosensitization effect of GSH depletion (A) or sod1-AS (B) in melanoma cells isolated from Pter-treated mice. Melanoma cells were cultured as in FIG. 1C. PAC.PBP (100 ng/ml) was added to the culture flasks 24 h after seeding. […] Data are mean values±SD for 5-6 different experiments (*p<0.01, comparing all experimental conditions vs controls).
FIGS. 18-25. Effect of piperlongumine and I-BET762, as GSH depleting and chemosensitizing agents, in in vitro growing human melanoma, pancreatic, breast, lung, liver, prostate, ovarian, and colorectal cancer cells. Cancer cells, isolated from Pter-treated tumor-bearing mice, were cultured as indicated under Methods. Chemotherapy (0.25 μM PAC.PBP in A2058 melanoma and MDA-MB-231 breast carcinoma cells; 0.125 μM PAC.PBP and 25 μM GTB in AsPC-1 pancreatic cancer cells; 1 μM VRB and 15 μM cisPt in A459 lung carcinoma cells; 0.15 μM DXR in HepG2 hepatocellular carcinoma cells; 15 nM DCT in PC-3 prostate carcinoma cells; 0.15 μM PAC.PBP and 25 μM CarboPt in SK-OV-3 ovarian carcinoma cells; 3 μM 5-FU, 1 μM FA and 0.6 μM IRI in HT-29 colorectal carcinoma cells) was added to the cultured flasks 24 h after seeding. PL (1 μM in A2058 and AsPC-1 cells; 0.5 μM in A549 and HT-29 cells; 0.2 μM in HepG2, PC-3, and SK-OV-3 cells; 0.1 μM in MDA-MB-231 cells) or I-BET762 (0.5 μM in HT-29 cells; 0.2 μM in A2058, AsPC-1, HepG2, PC-3, and SK-OV-3 cells; 0.1 μM in A549 and MDA-MB-231 cells) were added 6 h later. Data are mean values±SD for 4-5 different experiments per cell line (*p<0.05 and **p<0.01, comparing all experimental conditions versus control. PL, piperlongumine; PAC.PBP, paclitaxel protein-bound particles; GTB, gemcitabine; DXR, doxorubicin; VRB, vinorelbin; CisPt, cisplatin; docetaxel, DCT; CarboPt, carboplatin; 5-FU, 5-fluoracil; FA, folinic acid; IRI, irinotecan; 5-FU+FA+IRI=FOLFIRI).
(§1) Human A2058, MeWo and MelJuso melanoma cells, and mouse AtT-20 pituitary corticotroph tumor cells were from the American Type Culture Collection (ATCC). Human HEMa-LP epidermal melanocytes were from Life Technologies (Grand Island, N.Y.). Human MDA-MB-231 (triple negative: ER−, PR−, HER2−) and MCF-7 (ER+, PR+, HER2−) breast adenocarcinoma, A549 lung adenocarcinoma (NSCLC), HepG2 hepatocellular carcinoma, LNCaP (AR+) and PC-3 (AR−) prostate adenocarcinoma, SK-OV-3 epithelial ovarian carcinoma, and HT-29 and Caco-2 colorectal carcinoma cells were from the American Type Culture Collection. Cells were grown in Dulbecco's modified Eagle's medium (DMEM) (Invitrogen, San Diego, Calif.), pH 7.4, supplemented with 10% heat-inactivated FCS (Biochrom KG, Berlin, Germany), 100 units/ml penicillin and 100 μg/ml streptomycin. Cells were plated, at a density of 20,000 cells/cm2, and cultured at 37° C. in a humidified atmosphere with 5% CO2. Cells were harvested by incubation for 5 min with 0.05% (w/v) trypsin (Sigma, St. Louis, Mo.) in PBS (10 mM sodium phosphate, 4 mM KCl, 137 mM NaCl), pH 7.4, containing 0.3 mM EDTA, followed by the addition of 10% FCS to inactivate the trypsin. Cell numbers were determined using a Coulter Counter (Coulter Electronic Inc., Miami, Fla.). Cells were allowed to attach for 12 h before any treatment addition. Cellular viability was assessed as previously reported (Mena, S. et al. Clin Cancer Res 13, 2658-2666 (2007)), by measuring trypan blue exclusion and leakage of lactate dehydrogenase activity.
Isolation of Tumor Cells from Mouse Xenografts Using Enzymatic Digestion and a double Ficoll gradient. […]

A2058 melanoma cells = assay: NO production (NOx) in cultured A2058 cells isolated from treated mice; assay type: cell-based, human; conditions: 24-h cultured A2058 cells isolated from Pter-treated mice
ACTH = assay: Plasma ACTH levels (ELISA) in tumor-bearing mice; assay type: in vivo
Source text: Measurement of ACTH, Corticosterone, and NORA Levels.
Plasma levels of ACTH (Calbiotech, Inc., Spring Valley, Calif.), corticosterone (Kamiyama Biomedical Co., Seattle, Wash.), and NORA (IBL, Hamburg, Germany) were quantified by ELISA according to the instructions of the suppliers.

[2] = system: human breast, lung, liver, prostate, ovarian, and colorectal cancer cell lines; assay: Effect of Pter on growth or viability in vitro of breast, lung, liver, prostate, ovarian and colorectal tumor cell lines; assay type: cell-based; conditions: any of the tumor cell lines used (FIG. 15); 15 μM Pter×60 min every 24 h
Source text: FIG. 15. In vivo effect of Pter on human breast, lung, liver, prostate, ovarian, and colorectal cancer growth. […] For the lower and maximum Pter dose used, in each case, only the endpoint of the treatment period is shown.
as §1, with “Cells were plated, at a density of 20,000 cells/cm2, and cultured at 37° C. in a humidified atmosphere with 5% CO2. Cells were harvested by incubation for 5 min with 0.05% (w/v) trypsin (Sigma, St. Louis, Mo.) in PBS (10 mM sodium phosphate, 4 mM KCl, 137 mM NaCl), pH 7.4, containing 0.3 mM EDTA, followed by the addition of 10% FCS to inactivate the trypsin.” left out, “Cells were allowed to attach for 12 h before any treatment addition.” left out

[3] = system: LNCaP prostate adenocarcinoma; assay: In vivo growth of LNCaP prostate cancer xenografts; design: species or system human; conditions: day 49
[4] = system: HT-29 colorectal carcinoma; assay: In vivo growth of HT-29 colorectal cancer xenografts; design: species or system human; conditions: HT-29, day 21
A2058 melanoma = assay: In vivo growth of A2058 melanoma xenografts in nu/nu mice; design: species or system human

Structure (SMILES): COc1cc(/C=C/c2ccc(O)cc2)cc(OC)c1 [Pter, trans-3,5-dimethoxy-4′-hydroxystilbene]
- Viable cells [1]: 1015 ± 144 ×10^6
- NO production (NOx=NO2^− plus NO3^−) (A2058 melanoma cells): 0.15±0.04 nmol/10^6 cells
- ACTH (ACTH; A549-bearing mice, day 35, 6 h circadian time): 79 ± 19 pg/mL plasma
- ACTH (ACTH; AsPC-1-bearing mice, day 28, 6 h circadian time): 112 ± 31 pg/mL plasma
- ACTH (ACTH; BxPC-3-bearing mice, day 35, 6 h circadian time): 68 ± 11 pg/mL plasma
- ACTH (ACTH; Caco-2-bearing mice, day 28, 6 h circadian time): 35 ± 15 pg/mL plasma
- ACTH (ACTH; HT-29-bearing mice, day 21, 6 h circadian time): 44 ± 16 pg/mL plasma
- ACTH (ACTH; HepG2-bearing mice, day 35, 6 h circadian time): 116 ± 25 pg/mL plasma
- ACTH (ACTH; LNCaP-bearing mice, day 49, 6 h circadian time): 49 ± 15 pg/mL plasma
- ACTH (ACTH; MCF-7-bearing mice, day 28, 6 h circadian time): 44 ± 9 pg/mL plasma
- ACTH (ACTH; MDA-MB-231-bearing mice, day 35, 6 h circadian time): 65 ± 17 pg/mL plasma
- ACTH (ACTH; PC-3-bearing mice, day 21, 6 h circadian time): 102 ± 30 pg/mL plasma
- ACTH (ACTH; SK-OV-3-bearing mice, day 49, 6 h circadian time): 63 ± 19 pg/mL plasma
- ACTH levels in plasma (ACTH; melanoma-bearing mice, pterostilbene treatment (FIG. 2B)): decreased
- cell growth or viability in vitro [2]: did not affect
- Tumor vol. [3]: 757 ± 194 mm^3
- Tumor vol. [4]: 758 ± 214 mm^3
- inhibition of tumor growth (A2058 melanoma; A2058, day 35, 30 mg Pter/kg i.v. every 48 h, vs controls): approx. 70%
- Tumor vol. (A2058 melanoma; A2058-RFP, 35 days after inoculation, Pter 30 mg/kg i.v. every 48 h and/or CRC infusion 0.3 μg/h): 258 ± 66* mm^3
